In US11242344B2, “(4-hydroxypyrrolidin-2-yl)-heterocyclic compounds and methods of use thereof” (Genentech, Inc., priority 2017, dated 2022):

Key:
[1] = target: VHL co-expressed with Elongins B and C (Homo sapiens (Human), UniProt P40337); assay: Surface Plasmon Resonance Assay; type: binding; conditions: SPR measured VHL affinity; geometric mean where more than one measurement
Description: Using a Biacore T200, […] tagged VHL co-expressed with Elongins B and C were immobilized to a Biacore SA chip in running buffer without DMSO. Compounds were tested individually at varying concentrations in running buffer (50 mM HEPES pH 7.2, 150 mM NaCl, 0.5 mM TCEP, 0.001% Tween 20, 0.2% PEG3350, 2% DMSO) at 20° C. Sensorgrams were run in order from low to high concentration using a flow rate of 80 μL/min. Association and disassociation times were varied depending on the estimated potency of the compound tested. […] Galdeano et al, J. Med. Chem. 2014, 57, 8657-8663, herein incorporated by reference) which retained greater than 75% of the activity over the course of the run. Analysis of the binding curves and determination of the kinetic parameters were done using evaluation software (Version 2.0, Biacore).

VHL Elongin B/C complex = VHL Elongin B/C complex (Homo sapiens (Human), UniProt P40337); assay: Fluorescence Polarization (FP) VHL Binding Assay; conditions: for IC50: VHL binding, FP assay, geometric mean where more than one measurement
Description: The binding of test compounds to the VHL Elongin B/C complex was measured using a fluorescence polarization tracer competition assay. The VHL/Elongin B/C protein complex used in the assay was generated as follows. The coding region for amino acids E55-D213 of human VHL with N-terminal His6 tag with a TEV-protease cleavage site was co-expressed with Elongin B (residues M1-Q118) and Elongin C (Residues M17-C112) in E. coli. […] The purified VHL/Elongin B/C complex was dialyzed into formulation buffer: 20 mM Bis-Tris pH7.0, 150 mM NaCl, 1 mM DTT. A VHL fluorescence polarization probe (prepared in Example 91), consisted of a VHL ligand coupled to carboxytetramethylrhodamine (TAMRA); […] Compounds were prepared as a serial dilution in DMSO at a concentration 25-fold higher than the final desired concentration and acoustically dispensed (400 nl) into a ProxiPlate-384 Plus F, Black 384-shallow well Microplate (Part Number 6008260). DMSO was dispensed into wells designated for “VHL control” (without compound) wells. The “Assay Buffer” consisted of 50 mM Tris pH 8.0, 120 mM NaCl, 0.005% Nonidet P-40, and 1% DMSO (v/v). Assay Buffer containing […] VHL Elongin B/C complex was prepared and 5 μl dispensed using a BioRapTR (Beckman Coulter) into each well of the assay plate. Assay Buffer was also dispensed into “no VHL control” wells using the same method. A “pre-assay” fluorescence measurement was made using an Infinite® M1000 (Tecan) plate reader (Excitation 530 nm, Emission 574 nm, Bandwidth 10 nm). Assay Buffer containing 3.34 nM of the VHL FP probe was prepared in Assay Buffer and 5 μl dispensed into each well of the assay plate using a BioRapTR (Beckman Coulter). The final VHL/Elongin B/C protein concentration is 2.64 nM and the final probe concentration is 1.67 nM. Assay plates were briefly centrifuged and incubated for 1 hour at room temperature. “Post-assay” fluorescence polarization measurements were made as described for the “pre-assay” fluorescence measurement. Fluorescence polarization was calculated for each sample; taking into account the “pre-assay” fluorescence measurements and subtracting the fluorescence signal of the compound/VHL only (“pre-assay”) measurements from the “post-assay” fluorescence polarization measurements, for each plane of polarization. The data were analyzed using Genedata Screener software and normalized to the “no VHL control” and “VHL control” (without compound). IC50 values were calculated using a four parameter curve fit (Robust method).

Sequence of VHL Elongin B/C complex (P40337 whole entry, looked up, the tested form may be a part): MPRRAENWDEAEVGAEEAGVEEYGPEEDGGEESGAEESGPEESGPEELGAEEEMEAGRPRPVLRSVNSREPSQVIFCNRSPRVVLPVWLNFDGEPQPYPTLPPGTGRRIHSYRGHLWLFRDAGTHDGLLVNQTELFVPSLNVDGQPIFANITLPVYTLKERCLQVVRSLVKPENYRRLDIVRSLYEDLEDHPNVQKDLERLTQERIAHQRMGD
Sequence of VHL Elongin B/C complex (Q15370 whole entry partner, looked up, the tested form may be a part): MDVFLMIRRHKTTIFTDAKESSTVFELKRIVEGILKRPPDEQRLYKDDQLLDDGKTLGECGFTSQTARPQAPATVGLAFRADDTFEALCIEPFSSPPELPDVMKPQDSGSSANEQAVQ
Sequence of VHL Elongin B/C complex (Q15369 whole entry partner, looked up, the tested form may be a part): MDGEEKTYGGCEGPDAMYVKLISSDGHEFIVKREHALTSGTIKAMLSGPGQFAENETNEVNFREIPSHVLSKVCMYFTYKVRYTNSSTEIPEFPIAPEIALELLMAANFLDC
Sequence of VHL co-expressed with Elongins B and C (P40337 whole entry, looked up): as the sequence (P40337 whole entry, looked up, the tested form may be a part) above
Sequence of VHL co-expressed with Elongins B and C (Q15370 whole entry partner, looked up): as the sequence (Q15370 whole entry partner, looked up, the tested form may be a part) above
Sequence of VHL co-expressed with Elongins B and C (Q15369 whole entry partner, looked up): as the sequence (Q15369 whole entry partner, looked up, the tested form may be a part) above

SMILES | Kd [1] [µM] | IC50 (VHL Elongin B/C complex) [µM] | Kd (VHL Elongin B/C complex; probe binding to VHL/Elongin B/C) [µM]
Cc1cc([C@@H](C(=O)N2C[C@H](O)C[C@H]2C2=NOC(C)(C)N2)C(C)C)on1 [Example 126.2, (S)-1-((2S,4R)-2-(5,5-dimethyl-4,5-dihydro-1,2,4-oxadiazol-3-yl)-4-hydroxypyrrolidin-1-yl)-3-methyl-2-(3-methylisoxazol-5-yl)butan-1-one] | ≥ 150 |  | 
Cc1ncsc1-c1ccc([C@]2(C)NC(C3C[C@@H](O)CN3C(=O)[C@@H]3CCCN3S(C)(=O)=O)=NC2=O)cc1 (single isomer, unassigned) [Example 112.2] | 150 |  | 
Cc1cc(C(C(=O)N2C[C@H](O)CC2C2=NC(=O)C(C)(c3ccc(-c4scnc4C)cc3)N2)C(C)C)on1 (single isomer, unassigned) [Example 104.4] | 0.171 | 0.422 | 
Cc1cc(C(C(=O)N2C[C@H](O)CC2C2=NC(=O)C(C)(c3ccc(-c4cccnc4)cc3)N2)C(C)C)on1 (single isomer, unassigned) [Example 105.3] | > 150 | > 400 | 
Cc1cc(C(C(=O)N2C[C@H](O)CC2C2=NC(=O)C(C)(c3ccc(-c4scnc4C)cc3)N2)C(C)C)on1 (single isomer, unassigned) [Example 104.2] | > 150 | > 400 | 
Cc1cc(C(C(=O)N2C[C@H](O)CC2C2=NC(=O)C(C)(c3ccc(-c4cccnc4C)cc3)N2)C(C)C)on1 (single isomer, unassigned) [Example 106.4] | 0.895 | 2.96 | 
Cc1cc([C@@H](C(=O)N2C[C@H](O)C[C@H]2C2=NOC(c3ccc(Br)cc3)(C(F)(F)F)N2)C(C)C)on1 (single isomer, unassigned) [Example 133.2] | ≥ 150 | ≥ 400 | 
Cc1cc([C@@H](C(=O)N2C[C@H](O)C[C@H]2C2=NOC(C)(c3ccccc3)N2)C(C)C)on1 (single isomer, unassigned) [Example 128.1] | ≥ 150 |  | 
CC(=O)N[C@H](C(=O)N1C[C@H](O)CC1C1=NC(=O)C(C)(c2ccc(Br)cc2)N1)C(C)(C)C (single isomer, unassigned) [Example 101.1] | > 500 | > 200 | 
Cc1cc(C(C(=O)N2C[C@H](O)CC2C2=NC(=O)C(C)(c3ccc(Br)cc3)N2)C(C)C)on1 (single isomer, unassigned) [Example 103.4] | 1.09 | 6.73 | 
Cc1cc(C(C(=O)N2C[C@H](O)CC2C2=NC(=O)C(C)(c3ccc(-c4cccnc4C)cc3)N2)C(C)C)on1 (single isomer, unassigned) [Example 106.3] | > 150 | > 400 | 
CC(=O)N[C@H](C(=O)N1C[C@H](O)CC1C1=NC(=O)C(C)(c2ccc(Br)cc2)N1)C(C)(C)C (single isomer, unassigned) [Example 101.4] | 26.7 | 108 | 
Cc1cc(C(C(=O)N2C[C@H](O)CC2C2=NC(=O)C(C)(C)N2)C(C)C)on1 (single isomer, unassigned) [Example 107.3] | > 150 | > 50 | 
Cc1cc(C(C(=O)N2C[C@H](O)CC2C2=NC(=O)C(C)(c3ccc(-c4cccnc4C)cc3)N2)C(C)C)on1 (single isomer, unassigned) [Example 106.1] | > 150 | > 400 | 
Cc1ncsc1-c1ccc([C@]2(C)NC(C3C[C@@H](O)CN3C(=O)[C@H]3CCCN3S(C)(=O)=O)=NC2=O)cc1 (single isomer, unassigned) [Example 120.2] | ≥ 150 |  | 
Cc1cc(C(C(=O)N2C[C@H](O)CC2C2=NC(=O)C(C)(c3ccc(Br)cc3)N2)C(C)C)on1 (single isomer, unassigned) [Example 103.3] | > 150 | 292 | 
CC(=O)N[C@H](C(=O)N1C[C@H](O)CC1C1=NC(=O)C(C)(c2ccc(Br)cc2)N1)C(C)(C)C (single isomer, unassigned) [Example 101.3] | 332 | > 200 | 

SMILES | Kd [1] [µM] | IC50 (VHL Elongin B/C complex) [µM] | Kd (VHL Elongin B/C complex; probe binding to VHL/Elongin B/C) [µM]
Cc1ncsc1-c1ccc([C@]2(C)NC(C3C[C@@H](O)CN3C(=O)[C@H]3CCCN3S(C)(=O)=O)=NC2=O)cc1 (single isomer, unassigned) [Example 120.1] | ≥ 150 |  | 
Cc1cc(C(C(=O)N2C[C@H](O)CC2C2=NC(=O)C(C)(c3ccc(Br)cc3)N2)C(C)C)on1 (single isomer, unassigned) [Example 103.1] | > 150 | > 400 | 
Cc1ncsc1-c1ccc([C@]2(C)NC(C3C[C@@H](O)CN3C(=O)C(c3cc(O)no3)C(C)C)=NC2=O)cc1 (single isomer, unassigned) [Example 116.2] | 150 |  | 
Cc1cc(C(C(=O)N2C[C@H](O)CC2C2=NC(=O)C(C)(c3ccc(-c4cccnc4)cc3)N2)C(C)C)on1 (single isomer, unassigned) [Example 105.4] | 1.58 | 5.39 | 
Cc1cc(C(C(=O)N2C[C@H](O)CC2C2=NC(=O)C(C)(c3ccc(-c4cccc(=O)n4C)cc3)N2)C(C)C)on1 (single isomer, unassigned) [Example 108.2] | 3.95 | 11 | 
CC(=O)N[C@H](C(=O)N1C[C@H](O)CC1C1=NC(=O)C(C)(c2ccc(Br)cc2)N1)C(C)(C)C (single isomer, unassigned) [Example 101.2] | 41.6 | > 200 | 
Cc1ncsc1-c1ccc([C@]2(C)NC(C3C[C@@H](O)CN3C(=O)C(c3cc(O)no3)C(C)C)=NC2=O)cc1 (single isomer, unassigned) [Example 116.3] | 150 |  | 
Cc1cc(C(C(=O)N2C[C@H](O)CC2C2=NC(=O)C(C)(C)N2)C(C)C)on1 (single isomer, unassigned) [Example 107.4] | > 150 | > 50 | 
Cc1cc([C@@H](C(=O)N2C[C@H](O)C[C@H]2C2=NOC(C)(c3ccccc3)N2)C(C)C)on1 (single isomer, unassigned) [Example 128.2] | ≥ 150 |  | 
Cc1cc([C@H](C(=O)N2C[C@H](O)C[C@H]2C(=O)NCc2ccc(-c3scnc3C)cc2OCCNC(=O)c2ccc3c(c2)C(=O)OC32c3ccc(N(C)C)cc3Oc3cc(N(C)C)ccc32)C(C)C)on1 [VHL fluorescence polarization probe, (2S,4R)—N-(2-(2-(3′,6′-bis(dimethylamino)-3-oxo-3H-spiro[isobenzofuran-1,9′-xanthene]-5-carboxamido)ethoxy)-4-(4-methylthiazol-5-yl)benzyl)-4-hydroxy-1-((R)-3-methyl-2-(3-methylisoxazol-5-yl)butanoyl)pyrrolidine-2-carboxamide, reference compound] |  |  | 0.0182
Cc1cc(C(C(=O)N2C[C@H](O)CC2C2=NC(=O)C(C)(c3ccc(-c4cccnc4C)cc3)N2)C(C)C)on1 (single isomer, unassigned) [Example 106.2] | > 150 | > 400 | 
CC(=O)N1CCC[C@H]1C(=O)N1C[C@H](O)CC1C1=NC(=O)[C@](C)(c2ccc(-c3scnc3C)cc2)N1 (single isomer, unassigned) [Example 121.2] | ≥ 150 |  | 
Cc1cc(C(C(=O)N2C[C@H](O)CC2C2=NC(=O)C(C)(C)N2)C(C)C)on1 (single isomer, unassigned) [Example 107.1] | > 150 |  | 
Cc1cc(C(C(=O)N2C[C@H](O)CC2C2=NC(=O)C(C)(c3ccc(-c4cccnc4)cc3)N2)C(C)C)on1 (single isomer, unassigned) [Example 105.1] | 241 | 375 | 
Cc1cc(C(C(=O)N2C[C@H](O)CC2C2=NC(=O)C(C)(c3ccc(-c4cccc(=O)n4C)cc3)N2)C(C)C)on1 (single isomer, unassigned) [Example 108.3] | > 0.3 | > 400 | 
Cc1cc(C(C(=O)N2C[C@H](O)CC2C2=NC(=O)C(C)(C)N2)C(C)C)on1 (single isomer, unassigned) [Example 107.2] | 14.9 | 24.1 | 
Cc1cc(C(C(=O)N2C[C@H](O)CC2C2=NC(=O)C(C)(c3ccc(-c4scnc4C)cc3)N2)C(C)C)on1 (single isomer, unassigned) [Example 104.1] | 35.9 | 203 | 
